The values that follow come from US20080206447A1, “ORGANIC-ELECTROLUMINESCENCE-MATERIAL-CONTAINING SOLUTION, METHOD FOR FORMING ORGANIC ELECTROLUMINESCENCE THIN FILM AND ORGANIC ELECTROLUMINESCENCE DEVICE” (Idemitsu Kosan Co., Ltd., priority 2007, published 2008).

Holding throughout (assay type): physicochemical
Data set [1] is described as follows: Viscosity of the solvent. The conditions noted are these: neat solvent, 22 degrees C. The procedure:
100 mg of a compound A represented by the following formula was put into a sample bottle, and a solvent was dropped thereinto while stirring until the compound A was completely dissolved. The solubility of the compound A in the solvent was calculated from an amount of the dropped solvent. The viscosity of the solvent was measured at the temperature of 22 degrees C.

The nature of data set [2]: Solubility in 4-isopropylbiphenyl at 0.5 wt % by visual check. The conditions noted are these: for Solubility: added to 4-isopropylbiphenyl at 0.5 wt %, visual check; for Solubility in 4-isopropylbiphenyl (in words): 0.5 wt %. Further details: key to Solubility: A: solution that contained no insoluble element; B: solution that contained insoluble element(s). The text has this: The results are shown in Table 2, where solution that contained no insoluble element is rated as “A” while solution that contained insoluble element(s) is rated as “B”.

A short description of data set [3]: Solvent solubility of para-substituted naphthacene compound. The conditions noted are these: solvent not stated.

A value given as a limit tells only on which side of the number the result lay.

In data set [1], `Cc1ccc(Cc2ccc(C)c(C)c2)cc1C` [1,1-bis(3,4-dimethylphenyl)methane] returned a Viscosity of 33.6 cP. `CCc1cccc(-c2ccccc2)c1` [3-ethylbiphenyl] registered a Viscosity in data set [1] of 5.6 cP. Compound `CC(C)c1ccc(-c2ccccc2)cc1` [4-isopropylbiphenyl] showed a Viscosity in data set [1] of 6.9 cP. On to `c1cc(-c2ccc(-c3ccc4ccccc4c3)cc2)cc(-c2c3ccccc3c(-c3ccc(-c4cccc5ccccc45)cc3)c3ccccc23)c1` [Compound B], for which the Solubility entry in data set [2] is given as “A”. Still for that read-out and setting: to `c1ccc2cc(-c3ccc(-c4c5ccccc5c(-c5ccc(-c6cccc7ccccc67)cc5)c5ccccc45)cc3)ccc2c1` [Compound C] belongs “A”; to `c1ccc2cc(-c3ccc4cc(-c5c6ccccc6c(-c6ccc(-c7cccc8ccccc78)cc6)c6ccccc56)ccc4c3)ccc2c1` [Compound D], “A”; to `c1ccc(-c2cc(-c3ccc4ccccc4c3)cc(-c3c4ccccc4c(-c4ccc5ccccc5c4)c4ccccc34)c2)cc1` [Compound E], “A”. With `c1cc(-c2ccc3ccccc3c2)cc(-c2c3ccccc3c(-c3cccc4ccccc34)c3ccccc23)c1` [Compound F], in data set [2], the “Solubility in 4-isopropylbiphenyl (in words)” value (shortened to “Solubility … (in words)”) was “low solubility” and the Solubility entry was “B”. For the compound `c1cc(-c2ccc3ccccc3c2)cc(-c2c3ccccc3c(-c3ccc4cc(-c5ccc6ccccc6c5)ccc4c3)c3ccccc23)c1` [Compound G], in data set [2], the “Solubility … (in words)” value is “low solubility” and the Solubility entry is “B”. The like results for `c1ccc(-c2ccc(-c3c4ccccc4c(-c4ccccc4)c4ccccc34)cc2)cc1` [Compound H] were, in that order, “low solubility” and “B”.

For `c1ccc(-c2c3ccccc3c(-c3cccc(-c4cccc(-c5c6ccccc6c(-c6ccccc6)c6ccccc56)c4)c3)c3ccccc23)cc1` [Compound I], in data set [2], the “Solubility … (in words)” value is recorded as “low solubility” and the Solubility entry is recorded as “B”. Consider `c1ccc(-c2ccc(-c3ccccc3)c(-c3ccc(-c4cc(-c5ccccc5)ccc4-c4ccccc4)c4cc5cc6ccccc6cc5cc34)c2)cc1` [Compound J], for which the Solubility entry in data set [2] is reported as “A”. Consider `c1ccc(-c2cc(-c3ccccc3)c(-c3c4ccccc4c(-c4ccccc4)c4cc5ccccc5cc34)c(-c3ccccc3)c2)cc1` [Compound K], for which the Solubility result in data set [2] is listed as “A”. With `c1ccc(-c2ccc(-c3c4ccccc4c(-c4ccc(-c5ccccc5)cc4-c4ccccc4)c4cc5ccccc5cc34)c(-c3ccccc3)c2)cc1` [Compound L], in data set [2], the “Solubility … (in words)” value was “low solubility” and the Solubility entry is reported as “B”.

For `c1ccc(-c2ccc(-c3c4ccccc4c(-c4ccc(-c5ccccc5)cc4)c4cc5ccccc5cc34)cc2)cc1` [Compound M], in data set [2], the “Solubility … (in words)” value was “low solubility” and the Solubility entry is on record as “B”. On to `c1ccc(-c2c3ccccc3c(-c3ccccc3)c3c(-c4ccccc4)c4ccccc4c(-c4ccccc4)c23)cc1` [Compound N], for which, in data set [2], the “Solubility … (in words)” value is given as “lower solubility than the compounds J, K” and the Solubility entry was “B”. In the case of `c1ccc(C2CCCCC2)cc1` [cyclohexyl benzene], the Viscosity in data set [1] stood at 2.6 cP. In the case of `CCCCCCCCCCCCc1ccccc1` [dodecylbenzene], the Viscosity in data set [1] was 4.5 cP.

Regarding `c1ccc(-c2ccc(-c3c4ccccc4c(-c4ccc(-c5ccccc5)cc4-c4ccccc4)c4cc5ccccc5cc34)c(-c3ccccc3)c2)cc1` [drawing 5], the Solubility in data set [3] is on record as ≤ 0.1 wt %. For `Cc1cc(C)cc(C)c1` [mesitylene], the Viscosity in data set [1] is 0.76 cP. In turn, `CCC(C)c1ccccc1` (centres unmarked) [s-butylbenzene] returned a Viscosity in data set [1] of 1.0 cP. Regarding `CC(C)(C)c1ccccc1` [t-butylbenzene], the Viscosity in data set [1] is on record as 1.2 cP. For the compound `c1ccc2c(c1)CCCC2` [tetralin], the Viscosity in data set [1] turned out to be 2.3 cP. In turn, `Cc1ccccc1` [toluene] registered a Viscosity in data set [1] of 0.65 cP. Regarding xylene, the Viscosity in data set [1] was 0.76 cP.
